Measurements published in US5977063A, “Alkylated hexapeptides” (Eli Lilly and Company, priority 1998, dated 1999).

Assays:
Type in all cases: cell-based
[1] = tested on: Staphylococcus aureus 489; assay: MIC, standard broth micro-dilution assay, SA 489; set-up: unit not given here
Description: (§1) The antibacterial efficacy of the present compounds is illustrated by Table II. The minimal inhibitory concentrations (MICs) were determined using a standard broth micro-dilution assay.

[2] = tested on: Enterococcus faecium and faecalis (RESISTANT); details: geometric mean of 4-6 isolates
Description: as §1

[3] = tested on: Enterococcus faecium and faecalis (SENSITIVE); assay: MIC, standard broth micro-dilution assay, SENSITIVE enterococci; set-up: unit not given here; details: geometric mean of 4-6 isolates
Description: as §1

[4] = tested on: Staphylococcus epidermidis 270; assay: MIC, standard broth micro-dilution assay, SE 270; set-up: unit not given here
Description: as §1

[5] = tested on: Staphylococcus aureus 446; assay: MIC, standard broth micro-dilution assay, SA 446; set-up: unit not given here
Description: as §1

[6] = tested on: Staphylococcus aureus 447; assay: MIC, standard broth micro-dilution assay, SA 447; set-up: unit not given here
Description: as §1

[7] = tested on: Staphylococcus haemolyticus 105; assay: MIC, standard broth micro-dilution assay, SH 105; set-up: unit not given here
Description: as §1

[8] = tested on: Staphylococcus haemolyticus 415; assay: MIC, standard broth micro-dilution assay, SH 415; set-up: unit not given here
Description: as §1

[9] = tested on: Streptococcus pyogenes C203; assay: MIC, standard broth micro-dilution assay, SPY C203; set-up: unit not given here
Description: as §1

[10] = tested on: Streptococcus pneumoniae P1; assay: MIC, standard broth micro-dilution assay, SPN P1; set-up: unit not given here
Description: as §1

Compound | Minimal Inhibitory Concentration (MIC) SA 489 [1] | Minimal Inhibitory Concentration (MIC) RESISTANT [2] | Minimal Inhibitory Concentration (MIC) SENSITIVE [3] | Minimal Inhibitory Concentration (MIC) SE 270 [4] | Minimal Inhibitory Concentration (MIC) SA 446 [5] | Minimal Inhibitory Concentration (MIC) SA 447 [6] | Minimal Inhibitory Concentration (MIC) SH 105 [7] | Minimal Inhibitory Concentration (MIC) SH 415 [8] | Minimal Inhibitory Concentration (MIC) SPY C203 [9] | Minimal Inhibitory Concentration (MIC) SPN P1 [10]
C[C@@H]1O[C@@H](O[C@H]2[C@H](Oc3c4cc5cc3Oc3ccc(cc3Cl)[C@@H](O[C@H]3C[C@](C)(N)[C@@H](O)[C@H](C)O3)[C@@H]3NC(=O)[C@H](NC(=O)[C@@H]5NC(=O)[C@H](CC(N)=O)NC(=O)[C@H](NCc5ccc(-c6cc(C(F)(F)F)cc(C(F)(F)F)c6)cc5)[C@H](O)c5ccc(c(Cl)c5)O4)c4ccc(O)c(c4)-c4c(O)cc(O)cc4[C@@H](C(=O)O)NC3=O)O[C@H](CO)[C@@H](O)[C@@H]2O)C[C@](C)(N)[C@H]1O [Example 22, N^1 -(p-(3,5-BIS-(TRIFLUOROMETHYL)-PHENYL)BENZYL)-DESLEUCYL-A82846B] | 1 | 9.5 | 4.6 | 2 | 2 | 2 | 1 | 2 | ≤ .06 | ≤ .06
C[C@@H]1O[C@@H](O[C@H]2[C@H](Oc3c4cc5cc3Oc3ccc(cc3Cl)[C@@H](O[C@H]3C[C@](C)(N)[C@@H](O)[C@H](C)O3)[C@@H]3NC(=O)[C@H](NC(=O)[C@@H]5NC(=O)[C@H](CC(N)=O)NC(=O)[C@H](NCc5ccc(OCCCc6ccccc6)cc5)[C@H](O)c5ccc(c(Cl)c5)O4)c4ccc(O)c(c4)-c4c(O)cc(O)cc4[C@@H](C(=O)O)NC3=O)O[C@H](CO)[C@@H](O)[C@@H]2O)C[C@](C)(N)[C@H]1O [Example 21, N^1 -(p-(3-PHENYL-n-PROPOXY)BENZYL)DESLEUCYL-A82846B] | 4 | > 128 | 32 | 4 | 4 | 4 | 4 | 8 | ≤ .06 | ≤ .06
CCCCCCN[C@H]1C(=O)N[C@@H](CC(N)=O)C(=O)N[C@H]2C(=O)N[C@H]3C(=O)N[C@H](C(=O)N[C@H](C(=O)O)c4cc(O)cc(O)c4-c4cc3ccc4O)[C@H](O[C@H]3C[C@](C)(N)[C@@H](O)[C@H](C)O3)c3ccc(c(Cl)c3)Oc3cc2cc(c3O[C@@H]2O[C@H](CO)[C@@H](O)[C@H](O)[C@H]2O[C@H]2C[C@](C)(NCCCCCC)[C@@H](O)[C@H](C)O2)Oc2ccc(cc2Cl)[C@H]1O [Example 7, N^1,N^DISACC -DIHEXYLDESLEUCYL-A82846B] | 8 | > 128 | 111 | 16 | 16 | 8 | 4 | 8 | 8 | 8
C[C@@H]1O[C@@H](O[C@H]2[C@H](Oc3c4cc5cc3Oc3ccc(cc3Cl)[C@@H](O[C@H]3C[C@](C)(NCc6ccccc6)[C@@H](O)[C@H](C)O3)[C@@H]3NC(=O)[C@H](NC(=O)[C@@H]5NC(=O)[C@H](CC(N)=O)NC(=O)[C@H](NCc5ccccc5)[C@H](O)c5ccc(c(Cl)c5)O4)c4ccc(O)c(c4)-c4c(O)cc(O)cc4[C@@H](C(=O)O)NC3=O)O[C@H](CO)[C@@H](O)[C@@H]2O)C[C@](C)(NCc2ccc(-c3ccccc3)cc2)[C@H]1O [Example 6, N^1,N^MONOSACC -DIBENZYL-N^DISACC -(p-PHENYLBENZYL)-DESLEUCYL-A82846B] | 2 | 16 | 6.1 | 0.5 | 2 | 2 | 0.5 | 1 | 0.125 | 0.5
C[C@@H]1O[C@@H](O[C@H]2[C@H](Oc3c4cc5cc3Oc3ccc(cc3Cl)[C@@H](O[C@H]3C[C@](C)(N)[C@@H](O)[C@H](C)O3)[C@@H]3NC(=O)[C@H](NC(=O)[C@@H]5NC(=O)[C@H](CC(N)=O)NC(=O)[C@H](NCc5ccccc5)[C@H](O)c5ccc(c(Cl)c5)O4)c4ccc(O)c(c4)-c4c(O)cc(O)cc4[C@@H](C(=O)O)NC3=O)O[C@H](CO)[C@@H](O)[C@@H]2O)C[C@](C)(N)[C@H]1O [Example 12, N^1 -BENZYLDESLEUCYL-A82846B] | 64 | > 128 | 128 | > 64 | > 64 | > 64 | > 64 | > 64 | 2 | 2
C[C@@H]1O[C@@H](O[C@@H]2c3ccc(c(Cl)c3)Oc3cc4cc(c3O[C@@H]3O[C@H](CO)[C@@H](O)[C@H](O)[C@H]3O[C@H]3C[C@](C)(NCc5ccc(-c6ccccc6)cc5)[C@@H](O)[C@H](C)O3)Oc3ccc(cc3Cl)[C@@H](O)[C@@H](NCCCCCCCCCCCCc3ccccc3)C(=O)N[C@@H](CC(N)=O)C(=O)N[C@H]4C(=O)N[C@H]3C(=O)N[C@@H]2C(=O)N[C@H](C(=O)O)c2cc(O)cc(O)c2-c2cc3ccc2O)C[C@](C)(N)[C@H]1O [Example 2, N^1 -(12-PHENYL-n-DODECYL)-N^DISACC -(p-PHENYLBENZYL)-DESLEUCYL-A82846B] | 64 | 45 | 24 | 32 | 32 | > 64 | > 64 | > 64 | 4 | ≤ .06
C[C@@H]1O[C@@H](O[C@H]2[C@H](Oc3c4cc5cc3Oc3ccc(cc3Cl)[C@@H](O[C@H]3C[C@](C)(N)[C@@H](O)[C@H](C)O3)[C@@H]3NC(=O)[C@H](NC(=O)[C@@H]5NC(=O)[C@H](CC(N)=O)NC(=O)[C@H](NCCCCCCCCc5ccccc5)[C@H](O)c5ccc(c(Cl)c5)O4)c4ccc(O)c(c4)-c4c(O)cc(O)cc4[C@@H](C(=O)O)NC3=O)O[C@H](CO)[C@@H](O)[C@@H]2O)C[C@](C)(N)[C@H]1O [Example 19, N^1 -(8-PHENYL-n-OCTYL)DESLEUCYL-A82846B] | 1 | 45 | 254 | 4 | 2 | 1 | 2 | 2 | 0.5 | 0.5
C[C@@H]1O[C@@H](O[C@H]2[C@H](Oc3c4cc5cc3Oc3ccc(cc3Cl)[C@@H](O[C@H]3C[C@](C)(N)[C@@H](O)[C@H](C)O3)[C@@H]3NC(=O)[C@H](NC(=O)[C@@H]5NC(=O)[C@H](CC(N)=O)NC(=O)[C@H](NCCCCCCCCCCc5ccccc5)[C@H](O)c5ccc(c(Cl)c5)O4)c4ccc(O)c(c4)-c4c(O)cc(O)cc4[C@@H](C(=O)O)NC3=O)O[C@H](CO)[C@@H](O)[C@@H]2O)C[C@](C)(N)[C@H]1O [Example 18, N^1 -(10-PHENYL-n-DECYL)DESLEUCYL-A82846B] | 2 | 19 | 12 | 4 | 2 | 2 | 4 | 2 | 0.25 | 0.5
C[C@@H]1O[C@@H](O[C@@H]2c3ccc(c(Cl)c3)Oc3cc4cc(c3O[C@@H]3O[C@H](CO)[C@@H](O)[C@H](O)[C@H]3O[C@H]3C[C@](C)(NCc5ccc(-c6ccc(Cl)cc6)cc5)[C@@H](O)[C@H](C)O3)Oc3ccc(cc3Cl)[C@@H](O)[C@@H](NCc3ccc(-c5cc(C(F)(F)F)cc(C(F)(F)F)c5)cc3)C(=O)N[C@@H](CC(N)=O)C(=O)N[C@H]4C(=O)N[C@H]3C(=O)N[C@@H]2C(=O)N[C@H](C(=O)O)c2cc(O)cc(O)c2-c2cc3ccc2O)C[C@](C)(N)[C@H]1O [Example 27, N^1 -(p-(3,5-BIS-(TRIFLUOROMETHYL)-PHENYL)BENZYL)-N^DISACC -(p-(p-CHLOROPHENYL)BENZYL-DESLEUCYL-A82846B] | 32 | 9.5 | 6.1 | 8 | 64 | 32 | 8 | 32 | 64 | 32
